For this test, the target named is T1, CDK2 (Homo sapiens, UniProt P24941).
T1 construct: High-Throughput Measurement of Cellular Endogenous CDK2; endogenous in cells; host or cells: OVCAR3
In words: Inhibition of CDK2: phospho-Rb (S807/811) HTRF measurement in OVCAR3 cells, 24 h. Format: cell-based. The settings on record: 24 h compound treatment, read-out: pRB_OVCAR3_24h. The protocol: Inhibition of CDK2: Phospho-R^b Measurement in Cells
Phosphorylation of RB protein at S807/811 were measured using HTRF phospho-RB cellular kits (Cat #64RBS807PEG) from Cisbio.
On Day 1, OVCAR3 (CDK2 dependent cell line) cells were seeded into 96-well tissue-culture treated plates at 20,000 cells/well in 200 μL and incubated overnight at 37° C. in CO2 atmosphere. On Day 2, the cells were treated with test compounds at concentrations from 0.3 to 10,000 nM using HP D300 digital dispenser. Twenty-four hours after compound treatment, cell culture media is removed by flicking the plate and tapping the plate against clean paper towel. 30 μL 1× lysis buffer was supplemented from the kit was added to each well and the plate was incubated at room temperature on shaker for 30 min. After homogenization by pipetting up and down, 8 μL cell lysate from 96-well cell culture plate was transferred to 384-well small volume white detection plate. 2 μL premixed detection solution was added and the plate was covered with sealer. To prepare the detection solution, d2 conjugated-phospho-RB antibody and Eu-cryptate conjugated phosphor-RB antibody were diluted into detection buffer following manufacturer's instruction. Detection plates were incubated for 4 h at room temperature and read on ClarioStar (BMG Labtech) in TR-FRET mode (665 nM and 620 nM). The TR-FRET ratio (665 nM/620 nM) was plotted against the compound concentration and normalized to DMSO controls. Half maximal inhibition concentration (IC50) values were calculated with a four-parameter logistic fit using GraphPad Prism (version 8; La Jolla, CA).
(In general: In TR-FRET formats the signal depends on donor and acceptor labels being close together.)

Take `CO[C@@H]1CN(S(=O)(=O)c2cccc(N3CCC(CN4CCC(c5ccc6c(N7CCC(=O)NC7=O)nn(C)c6c5)CC4)CC3)c2)CC[C@H]1Nc1ncc(Cl)cn1` (racemic) [Example 219, Rac-1-(6-(1-((1-(3-(((3R,4R)-4-((5-chloropyrimidin-2-yl)amino)-3-methoxypiperidin-1-yl)sulfonyl)phenyl)piperidin-4-yl)methyl)piperidin-4-yl)-1-methyl-1H-indazol-3-yl)dihydropyrimidine-2,4(1H,3H)-dione]: the IC50 was more than 2500 nM. The figure for `Cn1nc(N2CCC(=O)NC2=O)c2ccc(C3CCN(CC4CCN(c5cccc(S(=O)(=O)N6CC7CCC(C6)C7Nc6ncc(Cl)cn6)c5)CC4)CC3)cc21` (racemic) [Example 229, Rac-1-(6-(1-((1-(3-(((1R,5S,8s)-8-((5-chloropyrimidin-2-yl)amino)-3-azabicyclo[3.2.1]octan-3-yl)sulfonyl)phenyl)piperidin-4-yl)methyl)piperidin-4-yl)-1-methyl-1H-indazol-3-yl)dihydropyrimidine-2,4(1H,3H)-dione] is more than 2500 nM; for `Cn1nc(N2CCC(=O)NC2=O)c2ccc(C3CCN(Cc4cccc(S(=O)(=O)N5CCC(Nc6ncc(C(F)(F)F)cn6)CC5)c4)CC3(F)F)cc21` (centres unmarked) [Example 3, 1-(6-(3,3-difluoro-1-(3-((4-((5-(trifluoromethyl)pyrimidin-2-yl)amino)-piperidin-1-yl)sulfonyl)benzyl)-piperidin-4-yl)-1-methyl-1H-indazol-3-yl)dihydropyrimidine-2,4(1H,3H)-dione] it is 100 to 500 nM; for `Cn1nc(N2CCC(=O)NC2=O)c2ccc(N3CC4(CN(Cc5cccc(S(=O)(=O)N6CCC(Nc7ncc(C(F)(F)F)cn7)CC6)c5)C4)C3)cc21` [Example 4, 1-(1-methyl-6-(6-(3-((4-((5-(trifluoromethyl)pyrimidin-2-yl)amino)piperidin-1-yl)sulfonyl)benzyl)-2,6-diazaspiro[3.3]heptan-2-yl)-1H-indazol-3-yl)dihydropyrimidine-2,4(1H,3H)-dione] it is 100 to 500 nM. Next, `O=C1CCN(c2nn(CC(F)(F)F)c3cc(C4CCN(Cc5cccc(S(=O)(=O)N6CCC(Nc7ncc(C(F)(F)F)cn7)CC6)c5)CC4)ccc23)C(=O)N1` [Example 5, 1-(1-(2,2,2-trifluoroethyl)-6-(1-(3-((4-((5-(trifluoromethyl)pyrimidin-2-yl)amino)-piperidin-1-yl)sulfonyl)benzyl)-piperidin-4-yl)-1H-indazol-3-yl)dihydropyrimidine-2,4(1H,3H)-dione]: 100 to 500 nM. Next, `Cc1ncsc1-c1ccc([C@H](C)NC(=O)[C@@H]2C[C@@H](O)CN2C(=O)[C@@H](NC(=O)CC2CCN(Cc3cccc(S(=O)(=O)N4CCC(Nc5ncc(C(F)(F)F)cn5)CC4)c3)CC2)C(C)(C)C)cc1` [Example 9, (2S,4R)-1-((S)-3,3-dimethyl-2-(2-(1-(3-((4-((5-(trifluoromethyl)pyrimidin-2-yl)amino)piperidin-1-yl)sulfonyl)-benzyl)piperidin-4-yl)acetamido)butanoyl)-4-hydroxy-N-((S)-1-(4-(4-methylthiazol-5-yl)phenyl)ethyl)pyrrolidine-2-carboxamide]: 100 to 500 nM; `Cn1nc(N2CCC(=O)NC2=O)c2ccc(C3CCN(Cc4cccc(S(=O)(=O)[C@H]5CC[C@H](Nc6ncc(C(F)(F)F)cn6)CC5)c4)CC3)cc21` [Example 10, 1-(1-methyl-6-(1-(3-(((1r,4r)-4-((5-(trifluoromethyl)pyrimidin-2-yl)amino)-cyclohexyl)sulfonyl)benzyl)piperidin-4-yl)-1H-indazol-3-yl)dihydropyrimidine-2,4(1H,3H)-dione]: 500 to 2500 nM; `Cn1nc(N2CCC(=O)NC2=O)c2ccc(N3CCN(Cc4cccc(S(=O)(=O)N5CCC(Nc6ncc(C(F)(F)F)cn6)CC5)c4)CC3)cc21` [Example 12, 1-(1-methyl-6-(4-(3-((4-((5-(trifluoro-methyl)pyrimidin-2-yl)amino)piperidin-1-yl)sulfonyl)benzyl)piperazin-1-yl)-1H-indazol-3-yl)dihydropyrimidine-2,4(1H,3H)-dione]: 100 to 500 nM.

Consider `Cn1nc(N2CCC(=O)NC2=O)c2ccc(C3CCN(Cc4cccc(S(=O)(=O)N5CCC(Nc6ncc(C(F)F)cn6)CC5)c4)CC3)cc21` [Example 13, 1-(6-(1-(3-((4-((5-(difluoromethyl)-pyrimidin-2-yl)amino)piperidin-1-yl)sulfonyl)benzyl)piperidin-4-yl)-1-methyl-1H-indazol-3-yl)dihydropyrimidine-2,4(1H,3H)-dione], for which the IC50 was 100 to 500 nM. Turning to `Cn1nc(N2CCC(=O)NC2=O)c2ccc(C3CCN(CC4CCN(S(=O)(=O)N5CCC(Nc6ncc(C(F)(F)F)cn6)CC5)CC4)CC3)cc21` [Example 15, 1-(1-methyl-6-(1-((1-((4-((5-(trifluoro-methyl)pyrimidin-2-yl)amino)piperidin-1-yl)sulfonyl)piperidin-4-yl)methyl)piperidin-4-yl)-1H-indazol-3-yl)dihydropyrimidine-2,4(1H,3H)-dione], the IC50 was in the range of 500 to 2500 nM. For `Cn1nc(N2CCC(=O)NC2=O)c2ccc(C3CCN(Cc4cccc(S(=O)(=O)N5CCC(Nc6ncc(C(C)(F)F)cn6)CC5)c4)CC3)cc21` [Example 17, 1-(6-(1-(3-((4-((5-(1,1-difluoroethyl)-pyrimidin-2-yl)amino)piperidin-1-yl)sulfonyl)benzyl)piperidin-4-yl)-1-methyl-1H-indazol-3-yl)dihydropyrimidine-2,4(1H,3H)-dione], the IC50 was more than 2500 nM. Next, `Cn1nc(N2CCC(=O)NC2=O)c2ccc(C3CCN(CC4CCN(S(=O)(=O)c5ccc(Nc6ncc(C(F)(F)F)cn6)c(F)c5)CC4)CC3)cc21` [Example 18, 1-(6-(1-((1-((3-fluoro-4-((5-(trifluoro-methyl)pyrimidin-2-yl)amino)phenyl)-sulfonyl)piperidin-4-yl)methyl)piperidin-4-yl)-1-methyl-1H-indazol-3-yl)dihydropyrimidine-2,4(1H,3H)-dione]: 500 to 2500 nM; `Cn1nc(N2CCC(=O)NC2=O)c2ccc(C3CCN(CC4CCN(S(=O)(=O)[C@H]5CC[C@H](Nc6ncc(C(F)(F)F)cn6)CC5)CC4)CC3)cc21` [Example 20, 1-(1-methyl-6-(1-((1-(((1r,4r)-4-((5-(trifluoromethyl)pyrimidin-2-yl)amino)-cyclohexyl)sulfonyl)piperidin-4-yl)methyl)-piperidin-4-yl)-1H-indazol-3-yl)-dihydropyrimidine-2,4(1H,3H)-dione]: 500 to 2500 nM; `O=C1CCN(c2nn(CC(F)(F)F)c3cc(C4CCN(Cc5cccc(S(=O)(=O)N6CCC(Nc7ncc(Cl)cn7)CC6)c5)CC4)ccc23)C(=O)N1` [Example 21]: 500 to 2500 nM. Take `O=C1CCC(N2C(=O)c3cc(F)c(N4CCN(Cc5cccc(S(=O)(=O)N6CCC(Nc7ncc(Cl)cn7)CC6)c5)CC4)cc3C2=O)C(=O)N1` (centres unmarked) [Example 22, 5-(4-(3-((4-((5-chloropyrimidin-2-yl)amino)piperidin-1-yl)sulfonyl)benzyl)-piperazin-1-yl)-2-(2,6-dioxopiperidin-3-yl)-6-fluoroisoindoline-1,3-dione]: the IC50 is 500 to 2500 nM. Next, `Cn1nc(N2CCC(=O)NC2=O)c2ccc(N3CCN(Cc4cccc(S(=O)(=O)N5CCC(Nc6ncc(Cl)cn6)CC5)c4)CC3)cc21` [Example 25, 1-(6-(4-(3-((4-((5-chloropyrimidin-2-yl)amino)piperidin-1-yl)sulfonyl)benzyl)-piperazin-1-yl)-1-methyl-1H-indazol-3-yl)dihydropyrimidine-2,4(1H,3H)-dione]: 100 to 500 nM; `Cn1nc(N2CCC(=O)NC2=O)c2ccc(C3CCN(Cc4cccc(S(=O)(=O)N5CCC(Nc6ncc(F)cn6)CC5)c4)CC3)cc21` [Example 26, 1-(6-(1-(3-((4-((5-fluoropyrimidin-2-yl)amino)piperidin-1-yl)sulfonyl)benzyl)-piperidin-4-yl)-1-methyl-1H-indazol-3-yl)dihydropyrimidine-2,4(1H,3H)-dione]: more than 2500 nM. Next, `Cn1nc(N2CCC(=O)NC2=O)c2ccc(C3CCN(C(c4cccc(S(=O)(=O)N5CCC(Nc6ncc(Cl)cn6)CC5)c4)C(F)F)CC3)cc21` (centres unmarked) [Example 30, 1-(6-(1-(1-(3-((4-((5-chloropyrimidin-2-yl)amino)piperidin-1-yl)sulfonyl)phenyl)-2,2-difluoroethyl)piperidin-4-yl)-1-methyl-1H-indazol-3-yl)dihydropyrimidine-2,4(1H,3H)-dione]: 500 to 2500 nM; `Cn1nc(N2CCC(=O)NC2=O)c2ccc(C3CCN(CCC4CCCN(S(=O)(=O)N5CCC(Nc6ncc(C(F)(F)F)cn6)CC5)C4)CC3)cc21` (centres unmarked) [Example 32, 1-(1-methyl-6-(1-(2-(1-((4-((5-(trifluoromethyl)pyrimidin-2-yl)amino)-piperidin-1-yl)sulfonyl)piperidin-3-yl)ethyl)piperidin-4-yl)-1H-indazol-3-yl)dihydropyrimidine-2,4(1H,3H)-dione]: 500 to 2500 nM. Next, `O=C1CCC(N2Cc3cc(N4CCN(Cc5cccc(S(=O)(=O)N6CCC(Nc7ncc(Cl)cn7)CC6)c5)CC4)c(F)cc3C2=O)C(=O)N1` (centres unmarked) [Example 34, 3-(5-(4-(3-((4-((5-chloropyrimidin-2-yl)amino)piperidin-1-yl)sulfonyl)benzyl)-piperazin-1-yl)-6-fluoro-1-oxoisoindolin-2-yl)piperidine-2,6-dione]: 100 to 500 nM.
